# Reference: article PMC1084349 (BMC Neuroscience, 2005)
# Where a SMILES comes first, the peptide text is derived from it.
# Biological target: T1, rTas1r2-rTas1r3 V738A (Rattus norvegicus, UniProt Q923K1+Q9Z0R7, V738A)
# T1 construct: expressed in transfected cells; host or cells: HEK293T cells stably expressing Gα16gust44
# T1 sequence (Q9Z0R7 20-843): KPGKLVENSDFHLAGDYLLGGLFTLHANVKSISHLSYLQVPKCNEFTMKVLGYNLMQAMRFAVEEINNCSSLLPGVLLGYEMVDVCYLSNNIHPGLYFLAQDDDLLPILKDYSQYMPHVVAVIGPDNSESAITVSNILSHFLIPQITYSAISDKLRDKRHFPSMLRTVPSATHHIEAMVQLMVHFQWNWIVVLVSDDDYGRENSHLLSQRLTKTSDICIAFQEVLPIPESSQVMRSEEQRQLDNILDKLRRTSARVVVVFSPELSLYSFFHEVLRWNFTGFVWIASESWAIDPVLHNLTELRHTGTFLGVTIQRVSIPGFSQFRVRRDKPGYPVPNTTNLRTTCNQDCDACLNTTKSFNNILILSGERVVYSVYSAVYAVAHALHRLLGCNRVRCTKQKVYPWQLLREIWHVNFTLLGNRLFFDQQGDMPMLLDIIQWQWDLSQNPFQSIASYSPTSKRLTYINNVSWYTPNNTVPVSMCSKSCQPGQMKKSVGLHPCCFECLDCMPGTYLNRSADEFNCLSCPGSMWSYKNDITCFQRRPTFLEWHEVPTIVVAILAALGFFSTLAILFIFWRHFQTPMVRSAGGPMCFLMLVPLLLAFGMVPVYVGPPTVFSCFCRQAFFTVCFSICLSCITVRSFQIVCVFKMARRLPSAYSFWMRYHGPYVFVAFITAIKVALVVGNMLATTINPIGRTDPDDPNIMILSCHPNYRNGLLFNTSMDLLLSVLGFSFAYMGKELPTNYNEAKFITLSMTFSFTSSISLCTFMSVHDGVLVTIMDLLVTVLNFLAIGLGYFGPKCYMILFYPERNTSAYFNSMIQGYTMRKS
# T1 sequence (Q923K1 21-858 V738A): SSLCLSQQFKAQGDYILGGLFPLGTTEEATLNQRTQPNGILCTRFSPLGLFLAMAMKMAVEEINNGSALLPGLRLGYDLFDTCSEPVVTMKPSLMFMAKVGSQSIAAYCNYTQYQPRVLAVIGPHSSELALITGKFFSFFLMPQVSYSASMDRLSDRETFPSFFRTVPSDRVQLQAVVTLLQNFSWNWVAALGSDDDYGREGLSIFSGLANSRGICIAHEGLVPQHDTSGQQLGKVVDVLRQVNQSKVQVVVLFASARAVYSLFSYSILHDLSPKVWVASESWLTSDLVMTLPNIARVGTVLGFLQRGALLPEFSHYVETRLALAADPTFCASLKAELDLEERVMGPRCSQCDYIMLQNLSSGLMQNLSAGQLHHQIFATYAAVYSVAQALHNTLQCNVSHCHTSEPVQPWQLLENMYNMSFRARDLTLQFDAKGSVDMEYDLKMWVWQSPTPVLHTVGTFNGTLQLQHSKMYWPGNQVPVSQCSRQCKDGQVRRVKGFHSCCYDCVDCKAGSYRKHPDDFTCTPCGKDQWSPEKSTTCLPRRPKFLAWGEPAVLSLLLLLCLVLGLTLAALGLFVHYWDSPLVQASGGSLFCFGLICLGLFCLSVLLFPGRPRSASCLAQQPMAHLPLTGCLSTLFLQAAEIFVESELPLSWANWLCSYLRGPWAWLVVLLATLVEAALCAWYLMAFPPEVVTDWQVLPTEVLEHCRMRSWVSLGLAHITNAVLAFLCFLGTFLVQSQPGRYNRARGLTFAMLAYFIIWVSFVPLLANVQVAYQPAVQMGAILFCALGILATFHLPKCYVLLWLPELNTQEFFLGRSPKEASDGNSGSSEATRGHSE
# Test: Calcium mobilization (FLIPR), rTas1r3-V738A variant
# Assay type: cell-based
# Conditions: asp 15 mM; cyc 30 mM; neo 0.1 mM; sac 10 mM; suc 100 mM; stev 1 mM
# Description: Receptor mutants were generated by site directed mutagenesis according to the QuikChange protocol (Stratagene). The forward and reverse complement primers contained the desired mutations and annealed to the same sequence on opposite strands of the plasmids. The following rTas1r3 receptor variants were generated: m1: S576L; m2: R632Q, S635P, S637Q; m3: M644L A645S; m4: A702T; m5: Q717H, V718M, V723A, E725V; m6: L735F, V738A, I740A. m6/1: V738A, I740A, m6/2: L735F, I740A, m6/3: L735F, V738A. m7: A793V, Y794L, Q795R. Subsequently a rTas1r3-V738A variant was generated. All constructs were checked by sequencing.
# The cDNAs were transiently transfected into HEK293T cells stably expressing the chimeric G-protein subunit Gα16gust44 [20] using Lipofectamine 2000 (Invitrogen) according to the manufacturer's protocol. 3–4 hours after transfection, DMEM was replaced by low-glucose DMEM supplemented with GlutaMAX and 10% dialyzed FBS (Invitrogen). 22–44 hours later, cells were loaded for 1 hour with the calcium sensitive dye Fluo4-AM (2 μg/ml in DMEM, Molecular Probes). […] Calcium mobilization was monitored by an automated fluorometric imaging plate reader (FLIPR, Molecular Devices). Ligands (Sigma-Aldrich, Merck) were dissolved in C1 solution. All data were collected from at least two independent experiments carried out in triplicate. The obtained calcium signals were corrected for the response of mock transfected cells and normalized to the fluorescence of cells prior to the stimulus using ΔF/F=(F-F0)/F0.
# (a, b) Responses of cells co-transfected with rTas1r2 and rTas1r3 mutants to stimulation with 1 mM stevioside. […] All sweeteners were used at concentrations which were close to the maximal obtainable signal.
row,Compound,activation of receptor (calcium response)
1,O=S(=O)(O)NC1CCCCC1 [cyclamate],not
2,C=C1C[C@@]23CC[C@H]4[C@@](C)(CCC[C@@]4(C)C(=O)O[C@@H]4O[C@H](CO)[C@@H](O)[C@H](O)[C@H]4O)[C@@H]2CC[C@]1(O[C@@H]1O[C@H](CO)[C@@H](O)[C@H](O)[C@H]1O[C@@H]1O[C@H](CO)[C@@H](O)[C@H](O)[C@H]1O)C3 [stevioside],activated
3,COC(=O)[C@H](Cc1ccccc1)NC(=O)[C@@H](N)CC(=O)O [aspartame] (HELM PEPTIDE1{D.F.[CO[*:1]]}$$$$V2.0),not

# Other lines, results leading:
row,activation of receptor (calcium response),Compound
1,not,COc1ccc(CCC(=O)c2c(O)cc(O[C@@H]3O[C@H](CO)[C@@H](O)[C@H](O)[C@H]3O[C@@H]3O[C@@H](C)[C@H](O)[C@@H](O)[C@H]3O)cc2O)cc1O [neohesperidine dihydrochalcone]
2,activated,OC[C@H]1O[C@@](CO)(O[C@H]2O[C@H](CO)[C@@H](O)[C@H](O)[C@H]2O)[C@@H](O)[C@@H]1O [sucrose]
